# Measured values reported in patent publication US4859707A, “Sulfur-substituted phenylacetamides” (Key Pharmaceuticals, Inc., priority 1983, dated 1989).
# What was measured:
# [1] = Stability toward human plasma; format: in vitro ADME; conditions: 37.0° C., over 2-3 hours
# Protocol: The freshly collected human plasma was stored in a refrigerator and used within 1 week from the date it was collected. A portion of […] at a standard methanol solution of the compound to be tested was mixed with 7.0 ml of plasma, previously equilibrated to 37.0° C., to result in an initial concentration of 0.2 mg/ml. Samples of 1.0 ml were withdrawn from the test medium, mixed immediately with 4.0 ml of ice cold 95% ethanol, and placed in a freezer. When all samples had been collected, they were centrifuged and the supernatant analyzed by HPLC.
# [2] = test system: esterase (carboxylic-ester hydrolase, EC 3.1.1.1); assay: Stability toward purified esterases: esterase (carboxylic-ester hydrolase, EC 3.1.1.1); format: in vitro ADME, porcine; conditions: pH 8.0, 37.0° C., over 2-3 hours
# Protocol: (§1) The effect of esterase (carboxylic-ester hydrolase, EC 3.1.1.1) and butyryl cholinesterase (EC 3.1.1.8), isolated from porcine liver and horse serum, was tested as follows: A portion of the enzyme and […] of a standard solution of the compound in methanol were added to 2.50 ml of 0.05M TRIS buffer, pH 8.0, previously equilibrated to 37.0° C., resulting in solutions containing 5.2 units of enzyme and 0.4 mg of compound in one ml. Aliquots ([…]) were injected into the column at various intervals.
# [3] = test system: butyryl cholinesterase (EC 3.1.1.8); assay: Stability toward purified esterases: butyryl cholinesterase (EC 3.1.1.8); format: in vitro ADME, horse; conditions: pH 8.0, 37.0° C., over 2-3 hours
# Protocol: as §1
# [4] = Metabolism in bovine liver microsomal preparations; format: in vitro ADME; conditions: 37.0° C., pH 8.0, 1 mg/ml
# Protocol: Two kg of minced bovine liver were mixed with 4 liters of homogenization medium (0.34M sucrose, 1 mM EDTA, and 5 mM TRIS-HCI buffer ph 7.5) and sieved through a screen. The sieved tissue was homogenized for 2 min in a Tekmar grinder. The homogenate was centrifuged successively at 980 g for 10 min and 10960 g for 10 min. The resulting supernatant was then centrifuged at 31300 g for 45 min. All procedures were carried out at 4° C. The microsomal pallet was suspended in an equal volume of 20 mM TRIS-HCI buffer pH 8.0 containing 1 mM EDTA. Centrifugation of this suspension at 123000 g for 90 min gave a pallet which is referred to as the washed microsomes. This pallet could be stored frozen for months with little loss of activity.
# The washed microsomes were mixed in a ratio of 1:2 (v/v) with 50 mM TRIS-HCI buffer ph 8.0. To 3.0 ml of this solution, previously equilibrated to 37.0° C., was added 0.2 ml of a standard solution of the compound to be tested resulting in an initial concentration of 1 mg/ml. Samples of 0.50 ml were withdrawn from the test medium, mixed immediately with 1.0 ml of ice cold 95% ethanol and place in a freezer. When all samples had been collected, they were centrifuged and the supernatant analyzed by HPLC.
# [5] = In vivo evaluation in rats (blood, urine and feces levels); design: species or system female Wistar rats; conditions: for Compound in urine after intravenous injection: i.v.
# Protocol: A solution of test compound in DMSO was injected slowly through the jugular vein (65 mg/kg) to a group of female Wistar rats (150-200 g), 1.00 ml blood samples were taken at various time intervals, mixed with 2.00 ml of ice cold acetonitrile, and placed in a freezer. When all samples had been collected, they were centrifuged and the supernatant analyzed by HPLC. In a separate experiment urine samples were collected after i.v. administration of the test compound. A solution of test compound in polyethylene glycol was given p.o. to a group of rats (0.25 g/kg) and blood samples analyzed as before. Also, urine and feces samples were analyzed after p.o. administration of the test compound.
# [6] = Estimation of LD50 in mice; conditions: mouse, in vivo, ip, intraperitoneal in dimethylsulfoxide, observed for 48 hr
# From the text: The LD50 in white CD-1 male mice (average mass, 24.0±0.1 g) was estimated.
# ventricular arrhythmia = assay: Evaluation of antiarrhythmic activity in dogs (ouabain-induced ventricular arrhythmia); format: in vivo, dog; conditions: for minimal effective dose: Canis lupus familiaris, iv, ouabain arrhythmia, i.v. infusion 0.5 mg/kg/min, read-out: Dose ± s.d. (dose of compound producing reversion to normal rhythm); for Duration of normal sinus rhythm after drug infusion: after end of i.v. infusion; for Dose required to produce reversion to normal rhythm relative to lidocaine / Duration of the effect relative to lidocaine: compared with lidocaine; for Arrhythmia activity in dogs: in words
# Protocol: Dogs of either sex were anesthetized with pentabarbital sodium, 30 mg/kg, i.v. A lead II EKG was recorded and heart rate monitored on a Grass polygraph with appropriate signal treatment modules. […] After a 20 minute stabilization period during which fast paper speed record segments (100 mm/sec) were taken to assess EKG profile, a […] dose of ouabain was injected intravenously as bolus. This was followed by 5 mg/kg doses of ouabain i.v., every 10 minutes, until a ventricular arrthymias occured--at lest 50% ventricular or septal ectopic beats. This usually occurred after a total dose of about 60 mg/kg. After 10 min of sustained arrhythmia, the compound to be tested was given by i.v. in fusion at a rate of 0.5 mg/kg/min (2 ml/min, flow-rate). The infusion was maintained until a normal sinus node heart rhythm was noted. The infusion was stopped and the total dose of compound administered was determined. The length of time that the normal sinus rhythm persisted after the end of infusion of the compound was also determined.
# In the table above, "dose" is dose of compound mg/kg producing reversion to normal rhythm. "Duration" is duration in minutes of normal sinus rhythm after drug infusion.
# [7] = intravenous, after uptake by highly perfused organs; cited from earlier work
structure (smiles),measurement,setting,value
"Cc1cccc(C)c1NC(=O)C[S+](C)C [Example 2, 2-Dimethylsulfonic-N-(2,6-dimethylphenyl)acetamide iodide]",Stability / degradation in human plasma,[1],no degradation could be observed over a period of 2-3 hours
same,Stability / degradation by esterase,[2],no degradation could be observed over a period of 2-3 hours
same,Stability / degradation by butyryl cholinesterase,[3],no degradation could be observed over a period of 2-3 hours
same,Hydrolysis by bovine liver microsomes,[4],hydrolyzed very slowly
same,Compound in urine after intravenous injection,[5],Only minimal amounts
same,Unchanged compound in blood,[5]; p.o.,significant amounts of the unchanged compound could be detected in the blood
same,Unchanged compound in urine,[5]; p.o.,nothing in the urine
same,Absorption after oral administration,[5]; p.o. 0.25 g/kg,absorbed slowly
same,dose excreted,"[5]; rat, feces, po, 250 mg/kg, p.o., read-out: Unchanged compound in feces",~7%
same,LD50 at 48 h,[6],300 mg/kg
same,minimal effective dose,ventricular arrhythmia,3.82 ± 0.85 mg/kg
same,Duration of normal sinus rhythm after drug infusion,ventricular arrhythmia,> 15 min
same,Dose required to produce reversion to normal rhythm relative to lidocaine,ventricular arrhythmia,somewhat larger doses were required
same,Duration of the effect relative to lidocaine,ventricular arrhythmia,much longer
same,Arrhythmia activity in dogs,ventricular arrhythmia,considerable arrhythmia activity
"CCSCC(=O)Nc1c(C)cccc1C [Example 5, 2-Ethylthio-N-(2,6-dimethylphenyl)acetamide]",Stability / degradation in human plasma,[1],no degradation could be observed over a period of 2-3 hours
same,Stability / degradation by esterase,[2],no degradation could be observed over a period of 2-3 hours
same,Stability / degradation by butyryl cholinesterase,[3],no degradation could be observed over a period of 2-3 hours
same,Compound in urine after intravenous injection,[5],Only minimal amounts
same,Bioavailability,[5]; p.o.,good bioavailability
same,Unchanged compound in feces (in words),[5]; p.o.,no unchanged compound could be detected in the feces or the urine
same,Unchanged compound in urine,[5]; p.o.,no unchanged compound could be detected in the feces or the urine
same,LD50 at 48 h,[6],2100 mg/kg
same,minimal effective dose,ventricular arrhythmia,2.5 ± 2.8 mg/kg
same,Duration of normal sinus rhythm after drug infusion,ventricular arrhythmia,> 20 min
same,Dose required to produce reversion to normal rhythm relative to lidocaine,ventricular arrhythmia,somewhat larger doses were required
same,Duration of the effect relative to lidocaine,ventricular arrhythmia,much longer
same,Arrhythmia activity in dogs,ventricular arrhythmia,considerable arrhythmia activity
"CCN(CC)CC(=O)Nc1c(C)cccc1C [lidocaine, reference compound]",minimal effective dose,ventricular arrhythmia,1.84 ± 0.32 mg/kg
same,Duration of normal sinus rhythm after drug infusion,ventricular arrhythmia,1.23 ± 0.37 min
same,Part of the dose left in blood,[7],about 15%
